Results taken from patent US10662218B2, “Analogs of celastrol” (ERX Pharmaceuticals, Inc., priority 2015, dated 2020).
≈ marks a conversion by molar mass, not a printed value. Where “and” joins values, the source holds several entries; their conditions need not be identical. Equal entries are not always repeated. Where two headings read alike, the source gives them in different places.

Key:
[1] = Compound solubility in PBS (pH 7.4), LC-MS/MS; conditions: PBS (pH 7.4), pH 7.4, aqueous buffer, kinetic from dmso stock
Procedure: • Test concentration: 100 μM (1% of DMSO) • Test systems: PBS (pH 7.4) • Incubation condition: shaken (1000 rpm) for 1 h at room temperature • Sample size: Duplicates (n=2) • Bioanalytical method: LC-MS/MS

[2] = test system: C57BL/6 Diet Induced Obese (DIO) mice; conditions: I.P. administration
Procedure: The following test compounds were studied to determine any anti-obesity effect when administered to rodents. First, test compounds were formulated in 50, 100, 200, 400, 500, 1000 and 2000 μg/kg doses and administered once daily in a dose volume of 2 mL/kg i.p. for multiple days. Test compounds were compared to administration of vehicle to mice. The experiment consisted of two phases: a pre-dosing phase and a dosing phase. Weight of the animals in each testing group was measured daily. Fluid samples were taken as well.
Descriptive statistics (n, mean, standard error of the mean, standard deviation) were completed. Additionally, one way analysis of variance followed by Dunnett's post-hoc test was performed on body weight (cumulative body weight change), glucose (glucose percent change), and food consumption (cumulative food consumption). Area under the curve (for body weight, cumulative body weight change, daily body weight change, and food consumption) was computed for treatment groups. An appropriate comparison test, such as one-way analysis of variance and Dunnett's, was performed on the group means for the area under the curve computations.

[3] = test system: C57BL/6 Diet Induced Obese (DIO) mice; assay: Oral (P.O.) administration study in DIO mice: animal fate (mortality) and clinical observations; conditions: mouse, in vivo, 2 mg/kg
Procedure: Male C57BL/6 DIO mice were assigned to 12 groups, and doses of 2 mg/kg Celastrol (ERX1000-4), ERX1006, ERX1007, ERX1037, ERX1060, ERX1077, ERX1107, ERX1149, ERX1168, ERX1177, and Pristimerin were administered to Groups 2 through 12, respectively. Animals were dosed via oral gavage once daily for 10 days at a volume of 2 mL/kg. The vehicle control article was 1% methyl cellulose (400 cps) in citric acid and phosphate buffer.
Parameters assessed included mortality, clinical observations, body weights and food consumption and blood glucose evaluations.
All animals were anesthetized via carbon dioxide, sacrificed, and discarded without further evaluation on Day 11.

[4] = test system: C57BL/6 Diet Induced Obese (DIO) mice; assay: Oral (P.O.) administration study in DIO mice: in vivo activity, body weights; parameters: species or system mouse; conditions: 2 mg/kg; for Individual Body Weight: individual male animals; for Body weight, Mean / change in vivo at 2 mg/kg: male; for change in vivo at 2 mg/kg: Mus musculus, po, read-out: Body weight, %-Diff
Procedure, shortened: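 Male C57BL/6 DIO mice (21-22 weeks, 29.8-40.1 g) were gavage-acclimated with vehicle, then dosed orally once daily for 10 days at 2 mL/kg. Body weight was recorded daily before dosing. Cumulative change and AUC were analysed by one-way ANOVA with Dunnett's test.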

[5] = Solubility (μM) Mean, Table 6-B, test concentration 100 μM (1% of DMSO), shaken (1000 rpm) 1 h at room temperature, n = 2
[6] = 24 h, Day 1, DSNG phase, difference of group mean
[7] = 48 h, Day 2, DSNG phase, difference of group mean
[8] = 72 h, Day 3, DSNG phase, difference of group mean
[9] = 96 h, Day 4, DSNG phase, difference of group mean
[10] = 120 h, Day 5, DSNG phase, difference of group mean
[11] = 144 h, Day 6, DSNG phase, difference of group mean
[12] = 168 h, DIO mice, phase DSNG, Day 7, difference of group mean from vehicle group 1
[13] = 192 h, DIO mice, phase DSNG, Day 8, difference of group mean from vehicle group 1
[14] = 216 h, DIO mice, phase DSNG, Day 9, difference of group mean from vehicle group 1
[15] = 240 h, DIO mice, phase DSNG, Day 10, difference of group mean from vehicle group 1
[16] = 264 h, DIO mice, phase DSNG, Day 11, difference of group mean from vehicle group 1

solubility at 1 h [1, 5] [µM] | solubility at 1 h ([1]; Solubility (μM), Table 6-D) [µM] | SMILES | activity ([2]; dose 100 μg/kg) | activity ([2]; dose 400 μg/kg) | Individual Animal Fate: Fate Status [3] | Body weight, Mean ([4]; DIO mice, phase DSNG, Day 7) [g] | Body weight, Mean ([4]; DIO mice, phase DSNG, Day 8) [g] | Body weight, Mean ([4]; DIO mice, phase DSNG, Day 9) [g] | Body weight, Mean ([4]; DIO mice, phase DSNG, Day 10) [g] | Body weight, Mean ([4]; DIO mice, phase DSNG, Day 11) [g] | Body weight, Mean ([4]; Day 1, DSNG phase, N=5) [g] | Body weight, Mean ([4]; Day 2, DSNG phase, N=5) [g] | Body weight, Mean ([4]; Day 3, DSNG phase, N=5) [g] | Body weight, Mean ([4]; Day 4, DSNG phase, N=5) [g] | Body weight, Mean ([4]; Day 5, DSNG phase, N=5) [g] | Body weight, Mean ([4]; Day 6, DSNG phase, N=5) [g] | change in vivo at 2 mg/kg [4, 6] [%] | change in vivo at 2 mg/kg [4, 7] [%] | change in vivo at 2 mg/kg [4, 8] [%] | change in vivo at 2 mg/kg [4, 9] [%] | other results
8.56 (≈ 3.97 µg/mL) | 8.56 (≈ 3.97 µg/mL) | COC1=C(C)C2=CC=C3[C@@](C)(CC[C@@]4(C)[C@@H]5C[C@](C)(C(N)=O)CC[C@]5(C)CC[C@]34C)C2=CC1=O [ERX1031] | − | ++ |  |  |  |  |  |  |  |  |  |  |  |  |  |  |  |  | 
1.13 (≈ 0.568 µg/mL) | 1.13 (≈ 0.568 µg/mL) | CCNC(=O)OC1=C(C)C2=CC=C3[C@@](C)(CC[C@@]4(C)[C@@H]5C[C@](C)(C#N)CC[C@]5(C)CC[C@]34C)C2=CC1=O [ERX1047] | − | ++ |  |  |  |  |  |  |  |  |  |  |  |  |  |  |  |  | 
0.79 (≈ 0.341 µg/mL) | 0.791 (≈ 0.342 µg/mL) | CC1=C(O)C(=O)C=C2C1=CC=C1[C@@]2(C)CC[C@@]2(C)[C@@H]3C[C@](C)(C#N)CC[C@]3(C)CC[C@]12C [ERX1015] | ++ |  |  |  |  |  |  |  |  |  |  |  |  |  |  |  |  |  | 

SMILES | solubility at 1 h [1, 5] [µM] | solubility at 1 h ([1]; Solubility (μM), Table 6-D) [µM] | activity ([2]; dose 100 μg/kg) | activity ([2]; dose 400 μg/kg) | Individual Animal Fate: Fate Status [3] | Body weight, Mean ([4]; DIO mice, phase DSNG, Day 7) [g] | Body weight, Mean ([4]; DIO mice, phase DSNG, Day 8) [g] | Body weight, Mean ([4]; DIO mice, phase DSNG, Day 9) [g] | Body weight, Mean ([4]; DIO mice, phase DSNG, Day 10) [g] | Body weight, Mean ([4]; DIO mice, phase DSNG, Day 11) [g] | Body weight, Mean ([4]; Day 1, DSNG phase, N=5) [g] | Body weight, Mean ([4]; Day 2, DSNG phase, N=5) [g] | Body weight, Mean ([4]; Day 3, DSNG phase, N=5) [g] | Body weight, Mean ([4]; Day 4, DSNG phase, N=5) [g] | Body weight, Mean ([4]; Day 5, DSNG phase, N=5) [g] | Body weight, Mean ([4]; Day 6, DSNG phase, N=5) [g] | change in vivo at 2 mg/kg [4, 6] [%] | change in vivo at 2 mg/kg [4, 7] [%] | change in vivo at 2 mg/kg [4, 8] [%] | change in vivo at 2 mg/kg [4, 9] [%] | other results
CCOC1=C(C)C2=CC=C3[C@@](C)(CC[C@@]4(C)[C@@H]5C[C@](C)(C(N)=O)CC[C@]5(C)CC[C@]34C)C2=CC1=O [ERX1107] | 11.4 (≈ 5.45 µg/mL) | 11.4 (≈ 5.45 µg/mL) |  |  | Scheduled Sacrifice | 32.4 | 32.3 | 32.2 | 32.4 | 32.7 | 34.2 | 34.3 | 33.4 | 33.2 | 33.1 | 32.7 | 0 | -1 | -1 | -1 | Individual Body Weight ([4]; Phase Day DSNG 1): 33.6 g and 35.8 g and 36.3 g and 31.2 g and 34.1 g; Individual Body Weight ([4]; Phase Day DSNG 2): 33.5 g and 36.5 g (2×) and 31.0 g and 33.9 g; Individual Body Weight ([4]; Phase Day PRED 11 (pre-dose baseline)): 34.1 g (2×) and 36.6 g and 37.7 g and 36.2 g; Individual Body Weight ([4]; Phase Day PRED 12 (pre-dose baseline)): 35.1 g and 37.5 g and 37.9 g and 33.2 g and 34.6 g; Individual Body Weight ([4]; Phase Day PRED 13 (pre-dose baseline)): 34.9 g and 38.0 g and 37.6 g and 31.9 g and 33.8 g; Individual Body Weight ([4]; Phase Day PRED 14 (pre-dose baseline)): 35.1 g and 37.5 g and 37.7 g and 32.5 g and 34.6 g; change in vivo at 2 mg/kg [4, 10]: -2%; change in vivo at 2 mg/kg [4, 11]: -2%; change in vivo at 2 mg/kg [4, 12]: -3%; change in vivo at 2 mg/kg [4, 13]: -4%; change in vivo at 2 mg/kg [4, 14]: -3%; change in vivo at 2 mg/kg [4, 15]: -3%; change in vivo at 2 mg/kg [4, 16]: -4%
CC1=C(O)C(=O)C=C2C1=CC=C1[C@@]2(C)CC[C@@]2(C)[C@@H]3C[C@](C)(N(C)C)CC[C@]3(C)CC[C@]12C [ERX1177] | 49.5 (≈ 22.3 µg/mL) | 49.5 (≈ 22.3 µg/mL) |  |  | Scheduled Sacrifice | 33.4 | 33.1 | 33.0 | 33.1 | 33.0 | 34.9 | 34.4 | 34.2 | 33.7 | 33.8 | 33.5 | 2 | 0 | 1 | 1 | Individual Body Weight ([4]; Phase Day DSNG 3): 31.8 g (2×) and 34.6 g (2×) and 38.2 g; Individual Body Weight ([4]; Phase Day DSNG 4): 31.2 g and 30.8 g and 34.8 g and 37.7 g and 34.2 g; Individual Body Weight ([4]; Phase Day DSNG 5): 31.3 g and 30.9 g and 34.2 g and 38.0 g and 34.4 g; Individual Body Weight ([4]; Phase Day DSNG 6): 31.4 g and 30.1 g and 33.7 g and 38.1 g and 34.4 g; Individual Body Weight ([4]; Phase Day DSNG 7): 31.4 g and 29.9 g and 33.7 g and 38.0 g and 34.1 g; Individual Body Weight ([4]; Phase Day DSNG 8): 31.0 g and 29.8 g and 33.4 g and 37.8 g and 33.7 g; change in vivo at 2 mg/kg [4, 10]: 0%; change in vivo at 2 mg/kg [4, 11]: 0%; change in vivo at 2 mg/kg [4, 12]: 0%; change in vivo at 2 mg/kg [4, 13]: -2%; change in vivo at 2 mg/kg [4, 14]: -1%; change in vivo at 2 mg/kg [4, 15]: -1%; change in vivo at 2 mg/kg [4, 16]: -3%; Individual Body Weight, DSNG 1 ([4]; individual male DIO mouse, dosing phase day 1): 32.0 g and 32.1 g and 35.5 g and 40.1 g and 35.0 g; Individual Body Weight, DSNG 2 ([4]; individual male DIO mouse, dosing phase day 2): 32.2 g and 31.9 g and 34.5 g and 38.4 g and 34.9 g; Individual Body Weight, PRED 11 ([4]; individual male DIO mouse, group dosed 2 mg/kg, pre-dose phase day 11 (baseline)): 33.8 g and 33.3 g and 37.1 g and 41.9 g and 35.5 g; Individual Body Weight, PRED 12 ([4]; individual male DIO mouse, group dosed 2 mg/kg, pre-dose phase day 12 (baseline)): 32.5 g and 33.7 g and 36.7 g and 41.6 g and 36.2 g; Individual Body Weight, PRED 13 ([4]; individual male DIO mouse, group dosed 2 mg/kg, pre-dose phase day 13 (baseline)): 31.8 g and 32.6 g and 35.6 g and 42.2 g and 36.1 g; Individual Body Weight, PRED 14 ([4]; individual male DIO mouse, group dosed 2 mg/kg, pre-dose phase day 14 (baseline)): 31.7 g and 33.1 g and 36.4 g and 41.7 g and 36.2 g
